In patent publication US10045985B2, “Heteroaryl compounds as BTK inhibitors and uses thereof” (Merck Patent GmbH, priority 2015, dated 2018) one finds IC50 data, which are given here for 15 compounds.

Experiment [1] deals with T1, BTK C481S enzyme (His-TEV-hsBTK(328-659)(C481S)) (Homo sapiens, UniProt Q06187, C481S).
T1 construct: His-TEV-hsBTK(328-659)(C481S); His (N); TEV cleavage site (N)
The experiment in a line: Assay B: microfluidic off-chip mobility shift assay for potency against BTK C481S enzyme. The format is biochemical. As to conditions: 90 min at 25° C. The text has this: Assay B: Microfluidic Off-Chip Mobility Shift Assay Protocol for Potency Assessment Against BTK C481S Enzyme
The protocol below describes a microfluidic, off-chip mobility shift kinase assay to measure inherent potency of compounds against BTK C481S enzyme. The mechanics of the assay platform are described by the vendor (PerkinElmer, Hopkinton, Mass.) on their website at the following URL: http://caliperls.com.
Briefly, 2.5× stocks of His-TEV-hsBTK(328-659)(C481S) from the Merck Serono Protein Purification Laboratory in Darmstadt, Germany (PCS, Q27/234), 1.6×ATP and appropriate KinKDR peptide substrate (FITC-AHA-EEPLYWSFPAKKK-NH2; Tufts University Core Facility custom synthesis) were prepared in kinase reaction buffer consisting of 25 mM MgCl2, 0.015% Brij-35 (30%), 100 mM HEPES, pH 7.5, and 10 mM DTT.
5 uL of enzyme buffer and 7.5 uL of ATP/KinKDR peptide substrate mix were added to Matrix (#4315) 384-well, sterile, flat-bottom polypropylene plates (Thermo Fisher Scientific, Hudson, N.H.) with 125 nL of serially diluted compounds prepared in 100% DMSO, and incubated for 90 min. at 25° C. Following the incubation period, reactions were terminated by adding 65 uL quench buffer consisting of 100 mM HEPES, pH 7.5, 0.015% Brij-35 (30%), 0.277% Coating Reagent #3 (PerkinElmer, Mountain View, Calif.), 5% DMSO. Terminated reactions were monitored at −2 PSI, −3000 V/−700 Volts in a LabChip 3000 plate reader from Caliper Life Sciences, a PerkinElmer Company (Hopkinton, Mass.), and the activity was quantified by laser-induced fluorescence measuring the charge/mass difference between substrate and product resulting from peptide phosphorylation. IC50 and efficacy were determined by plotting log [Inhibitor] vs. % Activity in GeneData Screener (Basel, Switzerland).

In experiment [2] the target is T2, full-length human BTK (Homo sapiens, UniProt Q06187).
T2 construct: full-length human BTK (08-080) from CarnaBio USA, Inc; purchased CarnaBio USA, Inc., Natick, Mass; 08-080
The experiment in a line: Assay A: microfluidic off-chip mobility shift assay for potency against BTK enzyme. The experiment is classed as biochemical. As to conditions: 90 min at 27° C. The text has this:
Assay A: Microfluidic Off-Chip Mobility Shift Assay Protocol for Potency Assessment Against BTK Enzyme
The protocol below describes microfluidic, off-chip mobility shift kinase assay to measure inherent potency of compounds against BTK enzyme. The mechanics of the assay platform are best described by the vendor (Caliper Life Sciences, a PerkinElmer Company, Hopkinton, Mass.) on their website at the following URL:
Briefly, 2.5× stocks of full-length human BTK (08-080) from CarnaBio USA, Inc., Natick, Mass., 1.6×ATP and appropriate kinKDR peptide substrate (FITC-AHA-EEPLYWSFPAKKK-NH2; developed in-house) were prepared in kinase reaction buffer consisting of 25 mM MgCl2, 0.015% Brij-35 (30%), 100 mM Hepes, pH 7.5, and 10 mM DTT.
5 uL of enzyme buffer and 7.5 uL of ATP/kinKDR peptide substrate mix were added to Matrix (#115304) 384-well, sterile, polypropylene plates (Thermo Fisher Scientific, Hudson, N.H.) with 125 nL of serially diluted compounds prepared in 100% DMSO, and incubated for 90 min. at 27° C. following the incubation period, reactions were stopped by adding 60 uL stop buffer consisting of 100 mM Hepes, pH 7.5, 0.015% Brij-35 (30%), 0.277% Coating Reagent #3 (Caliper Life Sciences, Mountain View, Calif.), 5% DMSO. Stopped reactions were monitored at −2 PSI, −3000 V/−700 V in a LabChip 3000 plate reader from Caliper Life Sciences, a PerkinElmer Company (Hopkinton, Mass.), and the activity was measured by off-chip mobility shift assay measuring the charge/mass difference between substrate and product resulting from peptide phosphorilation. IC50 and efficacy were determined by plotting log [Inhibitor] vs. % Activity in GeneData Screener (Basel, Switzerland).

Experiment [3] has as its system anti-IgM-induced expression of CD69 in human peripheral blood mononuclear cells (PBMCs). The experiment in a line: Assay C: time dependent PMBC IC50 assay (anti-IgM-induced CD69 expression on CD19 positive cells). The format is cell-based. As to conditions: PBMC, 1 h pre-treatment, anti-IgM overnight, CD69 on CD19 positive B cells. From the text: Assay C: Time Dependent PMBC IC50 Assay
Btk is critical for mediating the signalling of B cell antigen receptor (BCR) after anti-IgM stimulation. Based on this principle, a functional cell-based assay was established to determine the potency of compounds at inhibiting anti-IgM-induced expression of CD69, a downstream BCR signaling event, in freshly isolated human peripheral blood mononuclear cells (PBMCs). In the assay, a 90 al PBMC suspension containing 2.5×10^5 cells was pre-treated with 10 al of test compound at various concentrations for an hour, and then incubated overnight (approximately 16-18 hours) with 5 μl 420 μg/ml affiniPure F(ab′)2 fragment goat anti-human IgM Fc fragment per well (Dianova, Cat. No.: 109-006-129). After the incubation, the cells were washed and immunostained with an APC-labeled mouse anti-human CD69 (BD Biosciences; clone: FN50), a PerCP-Cy5.5 labelled mouse anti-human CD19 (BD Biosciences; clone: SJ25C1) and a FITC-labelled mouse anti-human CD3 (BD Biosciences; clone: HIT3a), and fixed for flow cytometric analysis of CD69 expression on CD19 positive cells (B cells). The percentage of CD69 expressing CD19 positive cells was plotted against the concentrations of test compounds to obtain a concentration response curve, and calculate an IC50 value as a measure of the potency of test compounds in the assay.

Some results are limits rather than exact numbers.

T2 sequence (Q06187 whole entry): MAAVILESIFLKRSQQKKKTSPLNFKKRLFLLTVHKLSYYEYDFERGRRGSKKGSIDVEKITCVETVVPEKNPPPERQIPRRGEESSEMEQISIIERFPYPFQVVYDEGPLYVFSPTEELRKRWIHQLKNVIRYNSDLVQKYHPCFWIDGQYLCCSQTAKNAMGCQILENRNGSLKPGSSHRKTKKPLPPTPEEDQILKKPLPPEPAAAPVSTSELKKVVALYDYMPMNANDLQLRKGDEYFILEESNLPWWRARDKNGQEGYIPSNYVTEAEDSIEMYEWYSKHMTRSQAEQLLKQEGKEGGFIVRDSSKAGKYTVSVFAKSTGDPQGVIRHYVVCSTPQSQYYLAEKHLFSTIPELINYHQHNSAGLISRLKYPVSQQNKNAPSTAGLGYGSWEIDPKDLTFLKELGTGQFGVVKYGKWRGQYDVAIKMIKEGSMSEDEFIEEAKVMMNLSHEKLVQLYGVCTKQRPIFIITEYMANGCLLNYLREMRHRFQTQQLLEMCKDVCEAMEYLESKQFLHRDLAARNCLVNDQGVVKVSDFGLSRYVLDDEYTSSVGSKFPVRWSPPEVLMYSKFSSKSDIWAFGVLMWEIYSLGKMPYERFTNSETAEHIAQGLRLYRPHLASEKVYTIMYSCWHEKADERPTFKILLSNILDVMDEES
T1 sequence (Q06187 328-659 C481S): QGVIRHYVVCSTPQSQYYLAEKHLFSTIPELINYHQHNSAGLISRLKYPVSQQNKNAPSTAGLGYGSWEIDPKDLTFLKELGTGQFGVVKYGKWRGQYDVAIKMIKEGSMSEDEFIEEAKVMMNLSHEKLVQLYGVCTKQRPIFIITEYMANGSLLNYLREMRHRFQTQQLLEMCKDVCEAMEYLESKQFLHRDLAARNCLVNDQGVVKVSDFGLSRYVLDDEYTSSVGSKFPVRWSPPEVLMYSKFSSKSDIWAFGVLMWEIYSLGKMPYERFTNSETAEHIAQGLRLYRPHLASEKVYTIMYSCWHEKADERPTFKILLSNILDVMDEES

`COCCOc1ccc(Nc2ncc(F)c(NC3CCCC(NC(=O)c4ccc(C5CC5)cc4)C3)n2)cc1` (stereo not drawn) [Compound 10, 4-cyclopropyl-N-(3-((5-fluoro-2-((4-(2-methoxyethoxy)phenyl)amino)pyrimidin-4-yl)amino)cyclohexyl)benzamide]: the values for the half-inhibitory concentration (IC50) in experiment [1], in experiment [2] and in experiment [3] were 0.1 to 1 µM, 0.1 to 1 µM and greater than 5 µM, respectively.
Turning to `COCCOc1ccc(Nc2ncc(F)c(NC3CCCC(NC(=O)c4cc5c(s4)CCCC5)C3O)n2)cc1` (racemic) [Compound 26], the IC50 in experiment [1] and in experiment [2] was less than 0.1 µM throughout.
`COCCOc1ccc(Nc2ncc(F)c(Nc3cccc(NC(=O)c4ccc(C(C)(C)C)cc4)c3)n2)cc1` [Compound 6]: the IC50 in experiment [1] and in experiment [2] was 1 to 5 µM each time.
As to `COCCOc1ccc(Nc2ncc(F)c(NC3CCCC(NC(=O)CNc4cccc(Cl)c4)C3)n2)cc1` (racemic) [Compound 5], the IC50 in experiment [1] and in experiment [2] was 1 to 5 µM in each case.
Consider `COCCOc1ccc(Nc2ncc(F)c(Nc3cccc(NC(=O)CNc4cccc(Cl)c4)c3)n2)cc1` [Compound 4, 2-((3-chlorophenyl)amino)-N-(3-((5-fluoro-2-((4-(2-methoxyethoxy)phenyl)amino)pyrimidin-4-yl)amino)phenyl)acetamide], for which the IC50 in experiment [1] is 0.1 to 1 µM; in experiment [2], 1 to 5 µM.
In the same order, the values of `COCCOc1ccc(Nc2ncc(F)c(N[C@@H]3CCC[C@@H](NC(=O)c4ccc(C(C)(C)C)cc4)C3O)n2)cc1` (stereo partly drawn) [Compound 24] are less than 0.1 µM and less than 0.1 µM.
As for `COCCOc1ccc(Nc2ncc(F)c(NC3CCCC(NC(=O)c4ccc(N(C)C)cc4)C3)n2)cc1` (stereo not drawn) [Compound 11, 4-Dimethylamino-N-(3-{5-fluoro-2-[4-(2-methoxy-ethoxy)-phenylamino]-pyrimidin-4-ylamino}-cyclohexyl)-benzamide], the IC50 in experiment [1] and in experiment [2] was 0.1 to 1 µM each time.
As for `COCCOc1ccc(Nc2ncc(F)c(NC3CCCC(NC(=O)c4ccc(C(C)(C)C)cc4)C3)n2)cc1` (racemic) [Compound 3, 4-(tert-butyl)-N-(3-((5-fluoro-2-((4-(2-methoxyethoxy)phenyl)amino)pyrimidin-4-yl)amino)cyclohexyl)benzamide], the IC50 in experiment [1] and in experiment [2] was 0.1 to 1 µM throughout.
As for `COCCOc1ccc(Nc2ncc(F)c(NC3CCCC(NC(=O)c4cc(C(C)(C)C)on4)C3O)n2)cc1` (racemic) [Compound 27], the IC50 in experiment [1] and in experiment [2] was 0.1 to 1 µM in each case.
Regarding `COCCOc1ccc(Nc2ncc(F)c(N3CCC[C@@H](NC(=O)CNc4cccc(Cl)c4)C3)n2)cc1` [Compound 2, (R)-2-((3-chlorophenyl)amino)-N-(1-(5-fluoro-2-((4-(2-methoxyethoxy)phenyl)amino)pyrimidin-4-yl)piperidin-3-yl)acetamide], the IC50 in experiment [1] and in experiment [2] was greater than 5 µM each time.
Regarding `COCCOc1ccc(Nc2ncc(F)c(NC3CCCC(NC(=O)c4ccc(C(C)(C)O)cc4)C3)n2)cc1` (stereo not drawn) [Compound 12, N-(3-{5-Fluoro-2-[4-(2-methoxy-ethoxy)-phenylamino]-pyrimidin-4-ylamino}-cyclohexyl)0-4-(1-hydroxy-1-methyl-ethyl)-benzamide], the IC50 in experiment [1] and in experiment [2] was 0.1 to 1 µM each time.
With `COCCOc1ccc(Nc2ncc(F)c(N3CCC(CNC(=O)c4ccc(C(C)(C)C)cc4)C3)n2)cc1` (racemic) [Compound 17, 4-(tert-butyl)-N-((1-(5-fluoro-2-((4-(2-methoxyethoxy)phenyl)amino)pyrimidin-4-yl)pyrrolidin-3-yl)methyl)benzamide], in experiment [2], the half-inhibitory concentration (IC50) is greater than 5 µM.
Turning to `COCCOc1ccc(Nc2ncc(F)c(N[C@@H]3CCC[C@@H](NC(=O)c4ccc(C(C)(C)C)cc4)C3)n2)cc1` (racemic) [Compound 19, 4-(tert-butyl)-N-(trans-3-((5-fluoro-2-((4-(2-methoxyethoxy)phenyl)amino)pyrimidin-4-yl)amino)cyclohexyl)benzamide], the IC50 in experiment [1] and in experiment [2] was less than 0.1 µM in each case.
For `COCCOc1ccc(Nc2ncc(F)c(NC3CCCC(NC(=O)c4coc(-c5ccccc5)n4)C3)n2)cc1` (stereo not drawn) [Compound 14, 2-Phenyl-oxazole-4-carboxylic acid (3-{5-fluoro-2-[4-(2-methoxy-ethoxy)-phenylamino]-pyrimidin-4-ylamino}-cyclohexyl)-amide], the IC50 in experiment [2] is greater than 5 µM.
As to `COCCOc1ccc(Nc2ncc(F)c(NC3CCCC(NC(=O)c4ccc(C(C)(C)C)cc4)C3O)n2)cc1` (racemic) [Compound 16, 4-(tert-butyl)-N-(3-((5-fluoro-2-((4-(2-methoxyethoxy)phenyl)amino)pyrimidin-4-yl)amino)-2-hydroxycyclohexyl)benzamide], the IC50 is less than 0.1 µM in experiment [1], less than 0.1 µM in experiment [2] and 1 to 5 µM in experiment [3].

Broadly, the IC50 is the concentration that gives 50% inhibition.
